Laboratory results from publication PMC1192819, “Molecular cloning and characterization of a nuclear androgen receptor activated by 11-ketotestosterone” (Reproductive biology and endocrinology : RB&E, 2005).

Legend:
[1] = tested on: spiggin mRNA in adult female stickleback kidney; assay: Induction of spiggin mRNA in stickleback kidney after steroid implants (slot blot); format: in vivo, three-spined stickleback (Gasterosteus aculeatus); details: females
Description: The fish were anesthetized with 0.1% (v/v) 2-phenoxyethanol (Sigma, St. Louis, MO, USA) and implanted intraperitoneally with Silclear silicone tubing (10-mm length, 0.6-mm inner diameter, 1.2-mm outer diameter) containing steroids dissolved in cocoa butter. […] KA was used as this steroid is converted into KT by the fish. Tubes containing cocoa butter alone were used as controls. Following implantation the fish were maintained in 50-liter aquaria containing brackish water (0.5% salinity) at 20°C under LD 16:8 h. At sampling fish were decapitated and the kidneys were excised, frozen using liquid nitrogen, and stored at -70°C. A number of experiments were performed as follows. Spiggin mRNA was measured in post-breeding females that were dissected 2 days following implantation of tubes. Cytosolic androgen-receptors were measured in females and in castrated males. Males were castrated under anesthesia as above, by making a 1.5 mm long incision into the abdominal cavity on each side and removing the testes using forceps. The females and the castrated males were implanted with control and high dose tubes and dissected after 6 days. AR mRNA was studied in females implanted for 12 h, 2 and 16 days (separate experiments) with control and high dose tubes and in males castrated as above and implanted for 10 days with control tubes and high doses of KA or E2.
Total RNA was extracted using Tri Reagent™ (Sigma). Aliquots of 10 μg of total RNA were mixed with denaturing solution (6 × SSC, 7% (v/v) formaldehyde) and transferred onto a nylon membrane (Amersham Pharmacia Biotech) using a Minifold II Slot Blot Apparatus (Schleicher and Schuell, Keene, NH, USA). Membranes were probed using either a randomly primed [α-^32P]-dCTP radiolabelled AR cDNA fragment (918 base pairs) that was isolated by reverse transcriptase-polymerase chain reaction and sequenced as above, or a randomly primed [α-^32P]-dCTP radiolabelled spiggin-α cDNA. Hybridizations were performed at 65°C overnight (6 × SCC, 0.1% (w/v) SDS, 100 μg ml^-1 tRNA, and 5 × Denhardt's solution). The membranes were washed for 2 × 30 minutes at 42°C and 65°C in 0.1 × SCC, 0.1% (w/v) SDS whereafter Hyperfilm™-MP film was exposed at -70°C. The films were visualized using Curix 60 Film Developer. Following AR and spiggin mRNA determination the membranes were stripped and analyzed for 18S rRNA using a cDNA fragment as internal control. Each AR or spiggin transcript was then semi-quantified using Quantity ONE 4.2.3 (Bio-Rad, Laboratories, Inc, Hercules, CA, USA) in relation to its internal 18S transcript.

human AR = molecular target: T1, human AR (Homo sapiens, UniProt P10275); assay: ARE-luciferase trans-activation assay, human AR in transfected ZFL cells; format: cell-based; details: 10^-8 M of each steroid
T1 construct: expressed in transfected cells; host or cells: ZFL (zebrafish liver) cells
T1 sequence (P10275 1-920): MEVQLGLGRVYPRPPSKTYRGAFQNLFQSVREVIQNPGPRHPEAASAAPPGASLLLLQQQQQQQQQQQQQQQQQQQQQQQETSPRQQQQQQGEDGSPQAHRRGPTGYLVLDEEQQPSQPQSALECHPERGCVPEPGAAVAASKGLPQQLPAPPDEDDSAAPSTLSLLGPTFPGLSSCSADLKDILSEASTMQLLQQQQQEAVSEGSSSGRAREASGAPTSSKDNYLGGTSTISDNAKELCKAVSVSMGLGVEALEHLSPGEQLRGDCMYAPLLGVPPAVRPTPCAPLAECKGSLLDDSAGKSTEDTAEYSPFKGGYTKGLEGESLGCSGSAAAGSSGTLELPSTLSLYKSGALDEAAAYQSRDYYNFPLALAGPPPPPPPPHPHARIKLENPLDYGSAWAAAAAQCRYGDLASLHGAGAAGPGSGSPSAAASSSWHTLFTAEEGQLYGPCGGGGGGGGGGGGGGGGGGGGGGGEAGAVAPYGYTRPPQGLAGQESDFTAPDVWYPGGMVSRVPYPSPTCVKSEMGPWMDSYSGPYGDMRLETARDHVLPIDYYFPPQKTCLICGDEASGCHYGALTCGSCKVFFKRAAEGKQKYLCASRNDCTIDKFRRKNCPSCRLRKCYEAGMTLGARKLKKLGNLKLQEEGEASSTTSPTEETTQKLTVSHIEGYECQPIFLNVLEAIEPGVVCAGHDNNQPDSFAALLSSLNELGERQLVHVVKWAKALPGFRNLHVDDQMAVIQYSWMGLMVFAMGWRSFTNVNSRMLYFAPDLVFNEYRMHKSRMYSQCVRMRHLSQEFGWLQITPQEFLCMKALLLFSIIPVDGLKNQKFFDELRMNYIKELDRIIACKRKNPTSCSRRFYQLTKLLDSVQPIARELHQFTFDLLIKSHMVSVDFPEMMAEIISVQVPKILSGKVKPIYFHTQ
Description: Two liver epithelial cell lines were used to test receptor activity. HepG2 cells (ATCC, Manassas, VA) were maintained in DMEM supplemented with 10% FCS and non-essential amino acids. ZFL cells (ATCC) were maintained in 50% L-15 Leibovitz, 15% H-12 Ham and 35% DMEM supplemented with 10% FCS (Gibco, Paisley, Scotland, UK) and 50 ng ml-1 EGF (Sigma). Cells were cultured at 37°C (HepG2) or 28°C (ZFL) in 5% CO2. The transfection experiments were initiated by replacing the tissue culture medium with fresh phenol-free medium supplemented with charcoal stripped FCS and the cells were seeded on 24-well plates. Transfections were performed at 90–95% confluence using 1,5 μl Lipofectamine 2000 (Invitrogen, Carlsbad, CA, USA) and 0,6 μg DNA per well. […]
After 16 h the transfection medium was replaced with fresh phenol-free medium, supplemented with charcoal stripped FCS, containing different steroid hormones. The cells were exposed to the hormones for 40 h and luciferase levels were detected using the Dual Luciferase Assay kit (Promega) in a TD 20/20 Luminometer (Turner Designs, Sunnyvale, CA). […]

rainbow trout ARα = details: COS-1 cell line; read-out: IC50 (ligand binding); cited from earlier work

In the case of C[C@]12CC(=O)[C@H]3[C@@H](CCC4=CC(=O)CC[C@@]43C)[C@@H]1CC[C@@H]2O [KT, 11-ketotestosterone], the “potency in spiggin induction relative to DHT” value ([1]; 1 μg implant dose) is reported as 23 times, the “effectiveness at increasing kidney spiggin mRNA levels relative to T” value ([1]; 25 μg implant dose) is reported as 50 times and the “activation of human AR compared among androgens” value (human AR) is reported as “equally activated”. For the same molecule, the IC50 (rainbow trout ARα) was 8 nM.
